Experimental data published in patent publication US8114991B2, “Amino-1,3,5-triazines N-substituted with chiral bicyclic radicals, process for their preparation, compositions thereof, and their use as herbicides and plant growth regulators” (Bayer Cropscience AG, priority 2003, dated 2012).

Columns and labels:
[1] = system: harmful plants such as Stellaria media, Lolium multiforum, Amaranthus retroflexus, Sinapis alba, Avena sativa and Setaria viridis; assay: Pre-emergence effect on weeds (greenhouse pot test); format: in vivo; details: application rate of 1 kg or less of active ingredient per hectare; scored after 3 to 4 weeks by comparison with untreated controls
Description: Seeds or rhizome pieces of monocotyledonous and dicotyledonous weed plants were placed in sandy loam in plastic pots and covered with soil. The compounds according to the invention, which were formulated in the form of wettable powders or emulsion concentrates, were then applied to the surface of the soil cover as aqueous suspension or emulsion at various dosages with an application rate of 600 to 800 l of water per ha (converted).
After the treatment, the pots were placed into a greenhouse and kept under good growth conditions for the weeds. The plant or emergence damage was scored visually after the test plants have emerged after an experimental time of 3 to 4 weeks by comparison with untreated controls.

[2] = system: harmful plants such as Sinapis alba, Echinochloa crus-galli, Lolium multiflorum, Stellaria media, Cyperus iria, Amaranthus retroflexus, Setaria viridis, Avena …; assay: Post-emergence effect on weeds (greenhouse pot test); format: in vivo; details: application rate of 2 kg or less of active ingredient per hectare; treated in the three-leaf stage; scored after approx. 3 to 4 weeks by comparison with untreated controls

| SMILES | pre-emergence control of harmful plants (plant or emergence damage scored visually) [1] | herbicidal post-emergence activity against harmful plants (scored visually) [2] |
| --- | --- | --- |
| CC1(c2nc(N)nc(N[C@@H]3CCc4ccccc43)n2)CC1 [Compound 8.148] | very good pre-emergence control | very good herbicidal post-emergence activity |
| CCc1ccc2c(c1)[C@H](Nc1nc(N)nc(CCSC(F)(F)F)n1)CC2 [Compound 8.250] | very good pre-emergence control | very good herbicidal post-emergence activity |
| Nc1nc(CF)nc(N[C@@H]2CCCc3ccccc32)n1 [Compound 8.100] | very good pre-emergence control | very good herbicidal post-emergence activity |
| Cc1ccc2c(c1)[C@H](Nc1nc(N)nc(C(C)(C)F)n1)CCO2 [Compound 8.215] | very good pre-emergence control | very good herbicidal post-emergence activity |
| C[C@H]1Cc2ccccc2[C@@H]1Nc1nc(N)nc(C(F)F)n1 [Compound 7.244] | very good pre-emergence control | very good herbicidal post-emergence activity |
| CCCCc1nc(N)nc(N[C@H]2c3cc(C)ccc3C[C@@H]2C)n1 [Compound 9.66] | very good pre-emergence control | very good herbicidal post-emergence activity |
| Nc1nc(CCl)nc(N[C@@H]2CCCc3ccccc32)n1 [Compound 8.117] | very good pre-emergence control | very good herbicidal post-emergence activity |
| C[C@@H]1Cc2ccccc2[C@@H]1Nc1nc(N)nc([C@@H](C)F)n1 [Compound 5.1] | very good pre-emergence control | very good herbicidal post-emergence activity |
| CCC(F)c1nc(N)nc(N[C@@H]2CCc3ccc(C)cc32)n1 (some centres unmarked) [Compound 10.37] | very good pre-emergence control | very good herbicidal post-emergence activity |
| CC1(c2nc(N)nc(N[C@@H]3CCCc4ccccc43)n2)CC1 [Compound 8.152] | very good pre-emergence control | very good herbicidal post-emergence activity |
| Cc1ccc2c(c1)C(Nc1nc(N)nc(C(C)F)n1)C(C)C2 (centres unmarked) [Compound 6.2] | very good pre-emergence control | very good herbicidal post-emergence activity |
| CCc1ccc2c(c1)[C@H](Nc1nc(N)nc(CC)n1)CC2 [Compound 8.248] | very good pre-emergence control | very good herbicidal post-emergence activity |
| CC(F)c1nc(N)nc(NC2CCc3ccccc32)n1 (mixture of isomers) [Compound 10.1] | very good pre-emergence control | very good herbicidal post-emergence activity |
| Cc1cc(C)c2c(c1)[C@H](Nc1nc(C)nc(N)n1)CCC2 [Compound 8.15] | very good pre-emergence control | very good herbicidal post-emergence activity |
| CCc1nc(N)nc(N[C@@H]2CCc3ccccc32)n1 [Compound 8.24] | very good pre-emergence control | very good herbicidal post-emergence activity |
| CCC(F)c1nc(N)nc(NC2c3ccccc3CC2C)n1 (mixture of isomers) [Compound 9.36] | very good pre-emergence control | very good herbicidal post-emergence activity |
| CCc1nc(N)nc(N[C@@H]2CCCc3c(C)cc(C)cc32)n1 [Compound 8.38] | very good pre-emergence control | very good herbicidal post-emergence activity |
| Cc1ccc2c(c1)[C@H](Nc1nc(N)nc(C(C)(C)F)n1)CCC2 [Compound 8.206] | very good pre-emergence control | very good herbicidal post-emergence activity |
| CC(C)(F)c1nc(N)nc(N[C@@H]2CCCc3ccccc32)n1 [Compound 8.205] | very good pre-emergence control | very good herbicidal post-emergence activity |
| Cc1ccc2c(c1)[C@H](Nc1nc(C)nc(N)n1)CC2 [Compound 8.2] | very good pre-emergence control | very good herbicidal post-emergence activity |
| C[C@@H](Cl)c1nc(N)nc(N[C@@H]2CCOc3ccccc32)n1 [Compound 1.31] | very good pre-emergence control | very good herbicidal post-emergence activity |
| C[C@@H](F)c1nc(N)nc(N[C@@H]2CCc3ccc(F)cc32)n1 [Compound 1.3] | very good pre-emergence control | very good herbicidal post-emergence activity |
| C[C@@H](Cl)c1nc(N)nc(N[C@@H]2CCc3ccccc32)n1 [Compound 1.24] | very good pre-emergence control | very good herbicidal post-emergence activity |
| Cc1ccc2c(c1)[C@H](Nc1nc(N)nc(C(C)(C)F)n1)[C@@H](C)C2 [Compound 7.229] | very good pre-emergence control | very good herbicidal post-emergence activity |
| CCCc1nc(N)nc(N[C@H]2c3cc(C)ccc3C[C@@H]2C)n1 [Compound 7.48] | very good pre-emergence control | very good herbicidal post-emergence activity |
| CCCc1nc(N)nc(N[C@@H]2CCc3ccc(CC)cc32)n1 [Compound 8.249] | very good pre-emergence control | very good herbicidal post-emergence activity |
| CCCc1nc(N)nc(N[C@@H]2CCCc3ccc(C)cc32)n1 [Compound 8.58] | very good pre-emergence control | very good herbicidal post-emergence activity |
| Cc1ccc2c(c1)[C@H](Nc1nc(N)nc(C(C)(C)Cl)n1)CC2 [Compound 8.219] | very good pre-emergence control | very good herbicidal post-emergence activity |
